Data taken from patent US7084136B2, “Drug composition antagonistic to both PGD2/TXA2 receptors” (Shionogi & Co., Ltd., priority 2000, dated 2006).

Assays:
[1] = Change of plasma concentration of drug in rat (half life of the disappearance after i.v. administration); assay type: in vivo; details: Jcl-SD male rats, 0.5 to 2 mg/kg intravenously, unchanged compound
Experimental: Experiment 4 Change of Plasma Concentration of Drug in Rat
Compound (0.5 to 2 mg/kg) was administered intravenously to Jcl-SD male rats.

[2] = target: T1, PGD2 receptor (Homo sapiens, UniProt Q13258); assay: Antagonistic activity against PGD2 receptor using human platelet (inhibition of PGD2-induced cAMP increase); assay type: cell-based; details: human platelet; 0.1 μM PGD2; read-out: Inhibitory activity for the increase of cAMP caused by PGD2 in human platelet IC50
T1 construct: A suspension adjusted to contain the platelets at a final concentration of 5×10^8/ml was warmed at 37° C; endogenous in cells; host or cells: washed human platelets from a healthy volunteer
T1 sequence (Q13258 1-359): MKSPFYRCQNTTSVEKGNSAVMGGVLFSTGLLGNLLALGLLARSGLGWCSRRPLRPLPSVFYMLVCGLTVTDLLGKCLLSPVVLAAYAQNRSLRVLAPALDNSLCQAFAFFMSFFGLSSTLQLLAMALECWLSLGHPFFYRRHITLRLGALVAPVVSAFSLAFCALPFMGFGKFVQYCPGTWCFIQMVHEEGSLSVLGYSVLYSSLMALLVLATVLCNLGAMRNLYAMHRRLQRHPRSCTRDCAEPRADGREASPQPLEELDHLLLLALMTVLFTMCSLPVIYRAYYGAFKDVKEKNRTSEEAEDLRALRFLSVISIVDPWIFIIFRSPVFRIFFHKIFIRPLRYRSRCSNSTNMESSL
Experimental: Experiment 3 Evaluation of Antagonistic Activity Against PGD2 Receptor
Receptor Using Human Platelet
Peripheral blood was collected from a healthy volunteer using a syringe in which 1/9 volume of a citric acid/dextrose solution was previously added. The sample was subjected to centrifugation at 1200 rpm for 10 min to obtain the supernatant (PRP: platelet rich plasma). The resultant PRP was washed 3 times with a washing buffer and the number of platelets was counted with a micro cell counter. A suspension adjusted to contain the platelets at a final concentration of 5×10^8/ml was warmed at 37° C., then subjected to the pre-treatment with 3-isobutyl-1-methylxanthine (0.5 mM) for 5 min. To the suspension was added a test compound diluted at various concentration, and 10 minutes later, 0.1 μM PGD2 was added to induce the reaction 2 minutes later, hydrochloric acid was added to terminate the reaction. The platelet was destroyed with an ultrasonic homogenizer. After centrifugation, the cAMP in the supernatant was determined by radioimmunoassay. PGD2 receptor antagonism of a drug was evaluated as follows: the inhibition rate regarding cAMP increased by the addition of PGD2 was determined at each concentration, and the concentration of the drug required for 50% inhibition (IC50) was calculated.

[3] = target: T1, PGD2 receptor; assay: Binding activity to PGD2 receptor ([3H]PGD2, human platelet membrane fraction); details: human platelet membrane fraction; read-out: Binding activity to PGD2 receptor in human platelet membrane fraction IC50
Experimental: Experiment 1 Binding Activity to PGD2 Receptor
(§1) (1) Preparation of Human Platelet Membrane Fraction
Blood was collected using a plastic syringe containing 3.8% sodium citrate from the vein of healthy volunteers (adult male and female), then put into a plastic test tube and mixed by slow-reversion. The sample was then centrifuged at 1800 rpm, for 10 min at room temperature, and the supernatant containing PRP (platelet-rich plasma) was collected. The PRP was re-centrifuged at 2300 rpm, for 22 min at room temperature to obtain platelets. The platelets were homogenized using a homogenizer (Ultra-Turrax) followed by centrifugation 3 times at 20,000 rpm, 10 min at 4° C. to obtain a platelet membrane fraction. After protein determination, the membrane fraction was adjusted to 2 mg/ml and preserved in a refrigerator at −80° C. until using for the binding test.
(2) Binding to PGD2 Receptor
To a binding-reaction solution (50 mM Tris/HCl, pH 7.4, 5 mM MgCl2) (0.2 ml) were added the human platelet membrane fraction (0.1 mg) and 5 nM [^3H]PGD2 (115 Ci/mmol), and the mixture was reacted at 4° C. for 90 min. After the reaction, the mixture was filtered through a glass fiber filter paper and washed several times with cooled physiological saline, then the radioactivity retained on the filter paper was measured. The specific-binding ratio was calculated by subtracting the non-specific binding ratio which is the radioactivity similarly measured in the presence of 10 μM PGD2 from the total binding. The inhibitory activity of each compound was expressed as the concentration required for 50% inhibition (IC50), which was determined by depicting a substitution curve by plotting the binding ratio (%) in the presence of each compound, where the binding ratio in the absence of a test compound is 100%.

[4] = target: T2, TXA2 receptor (Homo sapiens, UniProt P21731); assay: Binding activity to TXA2 receptor ([3H](+)-S-145 sodium salt, human platelet membrane fraction); details: human platelet membrane fraction; 2 nM [3H](+)-S-145 sodium salt; read-out: Binding activity to TXA2 receptor in human platelet membrane fraction IC50
T2 construct: The human platelet membrane fraction was prepared in accordance with Experiment 1 (1); from tissue; host or cells: human platelet membrane fraction from blood of healthy volunteers
T2 sequence (P21731 1-343): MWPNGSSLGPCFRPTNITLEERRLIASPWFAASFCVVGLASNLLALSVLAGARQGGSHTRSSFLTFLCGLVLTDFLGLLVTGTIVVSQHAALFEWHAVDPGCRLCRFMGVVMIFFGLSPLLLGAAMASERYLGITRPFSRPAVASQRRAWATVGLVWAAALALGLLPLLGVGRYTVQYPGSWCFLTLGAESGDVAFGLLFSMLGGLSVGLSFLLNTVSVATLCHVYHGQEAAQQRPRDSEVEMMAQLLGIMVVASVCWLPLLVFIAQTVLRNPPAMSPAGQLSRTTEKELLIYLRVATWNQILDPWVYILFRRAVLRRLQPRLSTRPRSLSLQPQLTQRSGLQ
Experimental: Experiment 2 Binding Activity to TXA2 Receptor
as §1
The human platelet membrane fraction was prepared in accordance with Experiment 1 (1).
(2) Binding to TXA2 Receptor
To a binding-reaction solution (50 mM Tris/HCl, pH 7.4, 10 mM MgCl2) (0.2 ml) were added the human platelet membrane fraction (0.05 mg) and 2 nM Sodium [^3H](+)-(5Z)-7-[3-endo-[(phenylsulfonyl)amino]bicyclo[2.2.1]hept-2-exo-yl]heptenoate (Japanese Patent Publication (Kokoku) No.79060/1993, hereinafter referred to as (+)-S-145 sodium salt) (26.4 Ci/mmol), and the mixture was reacted at room temperature for 90 min. After the reaction, the resultant mixture was filtered through a glass fiber filter paper and washed several times with cooled physiological saline, then the radioactivity retained on the filter paper was measured. The specific-binding ratio was calculated by subtracting the non-specific binding ratio (the radio activity similarly determined in the presence of 10 μM (+)-S-145 sodium salt) from the total binding. The inhibitory activity of each compound was expressed as the concentration required for 50% inhibition (IC50), which was determined by depicting a substitution curve by plotting the binding ratio (%) in the presence of each compound, where the binding ratio in the absence of a test compound is 100%.

| SMILES | half life of the disappearance [1] | IC50 [2] | IC50 [3] | IC50 [4] |
| --- | --- | --- | --- | --- |
| O=C(O)CCC/C=C\C[C@H]1[C@@H]2CC[C@@H](C2)[C@@H]1NC(=O)c1ccc(S(=O)(=O)n2cccc2)s1 [I-1] | 9.4 min | 1.3 nM | 4.3 nM | 3 nM |
| O=C(O)COCCCC[C@H]1[C@@H]2CC[C@@H](C2)[C@@H]1NC(=O)c1ccc(S(=O)(=O)n2cccc2)s1 [I-7M-1a] | 26.3 min |  |  |  |
| O=C(O)CCC/C=C\C[C@H]1[C@@H]2CC[C@@H](C2)[C@@H]1NC(=O)c1ccc(SCc2cccs2)s1 [I-106] |  | 9.3 nM | 13 nM | 13 nM |
| O=C(O)CCC/C=C\C[C@H]1[C@@H]2CC[C@@H](C2)[C@@H]1NC(=O)c1ccc(S(=O)(=O)c2cccc(O)c2)s1 [I-117] |  | 47 nM | 9.1 nM | 3.8 nM |
| Cc1ccc(Cc2ccc(C(=O)N[C@H]3[C@H]4CC[C@H](C4)[C@@H]3C/C=C\CCCC(=O)O)s2)c(C)c1 [I-128] |  | 10 nM | 20 nM | 48 nM |
| Cc1ccc(Cc2ccc(C(=O)N[C@H]3[C@H]4CC[C@H](C4)[C@@H]3C/C=C\CCCC(=O)O)s2)s1 [I-129] |  | 22 nM | 11 nM | 52 nM |
| Cc1cccc(Cc2ccc(C(=O)N[C@H]3[C@H]4CC[C@H](C4)[C@@H]3C/C=C\CCCC(=O)O)s2)c1 [I-131] |  | 41 nM | 44 nM | 19 nM |
| Cc1cccc(SCc2ccc(C(=O)N[C@H]3[C@H]4CC[C@H](C4)[C@@H]3C/C=C\CCCC(=O)O)s2)c1 [I-132] |  | 43 nM | 32 nM | 12 nM |
| O=C(O)CCC/C=C\C[C@H]1[C@@H]2CC[C@@H](C2)[C@@H]1NC(=O)c1ccc(Cc2cc3ccccc3o2)s1 [I-136] |  | 15 nM | 23 nM | 16 nM |
| O=C(O)CCC/C=C\C[C@H]1[C@@H]2CC[C@@H](C2)[C@@H]1NC(=O)c1ccc(Cc2ccc(OCc3ccccc3)c(O)c2)s1 [I-146] |  | 73 nM | 44 nM | 19 nM |
| O=C(O)CCC/C=C\C[C@H]1[C@@H]2CC[C@@H](C2)[C@@H]1NC(=O)c1cc2ccc(Cc3ccccc3)cc2s1 [I-160] |  | 85 nM | 28 nM | 20 nM |
| O=C(O)CCC/C=C\C[C@H]1[C@@H]2CC[C@@H](C2)[C@@H]1NC(=O)c1csc2c(Cc3cccs3)cccc12 [I-168] |  | 29 nM | 0.46 nM | 34 nM |
| O=C(O)CCC/C=C\C[C@H]1[C@@H]2CC[C@@H](C2)[C@@H]1NC(=O)c1csc2c(Cc3ccsc3)cccc12 [I-169] |  | 26 nM | 0.61 nM | 32 nM |
| O=C(O)CCC/C=C\C[C@H]1[C@@H]2CC[C@@H](C2)[C@@H]1NC(=O)c1csc2c(Cc3ccoc3)cccc12 [I-170] |  | 17 nM | 0.92 nM | 27 nM |
| O=C(O)CCC/C=C\C[C@H]1[C@@H]2CC[C@@H](C2)[C@@H]1NC(=O)c1ccc(Cc2csc3ccccc23)s1 [I-182] |  | 11 nM | 61 nM | 28 nM |
| CC1(C)[C@H]2C[C@H](C/C=C\CCCC(=O)O)[C@@H](NC(=O)c3ccc(S(=O)(=O)n4cccc4)s3)[C@@H]1C2 [II-1] |  | 11 nM | 2 nM | 12 nM |
| CC1(C)[C@H]2C[C@H](C/C=C\CCCC(=O)O)[C@@H](NC(=O)c3ccc(S(=O)(=O)c4ccccc4)s3)[C@@H]1C2 [II-37] |  | 35 nM | 26 nM | 4.3 nM |
| CC1(C)[C@H]2C[C@H](C/C=C\CCCC(=O)O)[C@@H](NC(=O)c3ccc(S(=O)(=O)c4cccs4)s3)[C@@H]1C2 [II-47] |  | 4 nM | 0.96 nM | 3.6 nM |
| Cc1cccn1S(=O)(=O)c1ccc(C(=O)N[C@@H]2[C@@H](C/C=C\CCCC(=O)O)C[C@H]3C[C@@H]2C3(C)C)s1 [II-55] |  | 3.9 nM | 1.5 nM | 4.4 nM |
| Cc1cc(S(=O)(=O)c2ccc(C(=O)N[C@@H]3[C@@H](C/C=C\CCCC(=O)O)C[C@H]4C[C@@H]3C4(C)C)s2)cs1 [II-101] |  | 45 nM | 72 nM | 4 nM |
| CC1(C)[C@H]2C[C@H](C/C=C\CCCC(=O)O)[C@@H](NC(=O)c3ccc(S(=O)(=O)c4cccc(O)c4)s3)[C@@H]1C2 [II-117] |  | 24 nM | 22 nM | 2.6 nM |
| COc1ccccc1Cc1ccc(C(=O)N[C@@H]2[C@@H](C/C=C\CCCC(=O)O)C[C@H]3C[C@@H]2C3(C)C)s1 [II-126] |  | 4 nM | 4.6 nM | 45 nM |
| CC1(C)[C@H]2C[C@H](C/C=C\CCCC(=O)O)[C@@H](NC(=O)c3ccc(Cc4cccc(-c5ccccc5)c4)s3)[C@@H]1C2 [II-138] |  | 25 nM | 32 nM | 72 nM |
